# Like-named read-outs stand apart in the source and are kept apart here.
# Experiments:
# [1] = tested on: Pseudomonas putida KT2440; assay: Pseudomonas putida KT2440 cell growth test (OD600) with different carbon sources; format: cell-based; conditions: for cell growth (cell concentration): synthetic solutions matching concentrations in the depolymerized polymers, versus 10 mM glucose control
# Procedure: [38, 39, 44, 45]. […] This is likely due to the relatively high [Ch][Lys] concentration, where the [Ch][Lys] concentration is 4 wt %.
# Due to the fact that the depolymerized PET/PLA comprises multiple carbon sources (e.g., TPA, LA, and [Ch][Lys]), it is essential to identify the major contributors for the cell growth. Two additional tests were performed. […] The depolymerized products were then diluted 20-fold to prepare the media for cell growth test. A media prepared with only [Ch][Lys] was used as the IL control.
# To validate this hypothesis, a second cell growth test was conducted using synthetic TPA and LA as the media. TPA, LA, and TPA/LA mixture were prepared to match the concentrations in the depolymerized polymers. […] It can be concluded that Pseudomonas putida KT2440 is capable of catabolizing LA from depolymerized PLA and [Ch][Lys] as carbon sources, but lacks a natural metabolic pathway to consume TPA. So far, no natural terephthalate degradation pathway has been reported in Pseudomonas putida KT2440. This is consistent with our findings that TPA cannot support cell growth of Pseudomonas putida KT2440. A recent study has shown the success in engineering Pseudomonas putida KT2440 to catabolize TPA for different fermentation products. This opens the door to efficiently utilizing both TPA and LA from the depolymerized PET/PLA.
# Pseudomonas putida KT2440 was inoculated as the seed culture at 30° C. overnight. The cell culture was spun down and washed with 3-(N-morpholino)propane sulfonic acid (MOPS) buffer for 5 times to remove the carbon sources. 1% cell resuspension was inoculated into 500 μL growth media in 48 well plates. The growth media included MOPS rich buffer (Teknova, #M2105) and 25 μg/mL Chloramphenicol, added with different carbon sources to support the cell growth (Table 4). Cell growths were monitored continuously at OD600 nm for 72-120 h in the plate reader (Biotek-Synergy, Y-H1) at 30° C., 570 rpm.
# [2] = cited from earlier work
# [3] = pH of the reaction solution before and after IL catalyzed depolymerization; format: physicochemical; conditions: for pH before reaction: IL systems 10 wt % in water, alkaline water adjusted with NaOH; for pH after reaction, PET: after depolymerization reaction of PET; for pH after reaction, PLA: after depolymerization reaction of PLA
# Procedure: Hydrolytic depolymerization of PET and PLA involves chain scission of ester linkages, where a carboxyl end group is released. […] We hypothesized that the pH influenced by IL was the major driving force of PET and PLA depolymerization. To test the hypothesis, a set of control experiments were conducted using only water and alkaline water as the solvent. […] (with pH 11.8).
# [4] = Hydrolytic depolymerization of PLA using ILs in water
# Procedure: (§1) Most of them are conventional imidazolium-based, including the ones that contain halometallates. With the progress in the IL research, economic and biocompatible cholinium-based ILs have attracted high interest.
# (§2) […] […] The tube was immersed in a preheated oil bath at a desired temperature. Upon completion of the reaction, the tube was taken out from the oil bath and cooled to room temperature.
# (§3) The reaction residue was transferred to a 50 mL falcon tube, where solid residue was recovered through centrifugation. […] The liquid fraction was sampled for product analysis. The depolymerization and product yield are defined as follows:
# (§4) Depolymerization=Wsubstrate−W1Wsubstrate100%
# (§5) Yield=Wproduct/MproductWsubstrate/Msubstrate×100%
# (§6) Then 4 mM sulfuric acid was used as the mobile phase at a flow rate of 1.0 mL/min. The column oven temperature was maintained at 65° C.
# [5] = Depolymerization of PET/PLA mixtures (1:1 mass ratio) using [Ch][Lys]; conditions: 160° C.
# Text: As discussed previously, the current waste management facilities will not completely eliminate the PLA contamination when sorting PET for recycling. […] Chemical recycling is an alternative to mechanical recycling in regard to dealing with PLA contaminants. […] Given its high catalytic activity, [Ch][Lys] was selected as the IL in the reaction. It should be emphasized that [Ch][Lys] is a favorable choice not only because of its high depolymerization efficiency but also because it is economic, biocompatible, less toxic, and environmentally friendly.
# The initial set of experiments was carried out at 160° C. for two hours. As shown in FIG. 4A and FIG. 4B, the depolymerization efficiency varied across different IL loadings. […] Meanwhile, the TPA yield turned to be negligible (1.5%) and the LA yield was merely 40.9%. The reasons are manifold.
# Although [Ch][Lys] is considered as cost-competitive compared to other conventional ILs, IL usage is often the major cost contributor in the process economics. In order to explore the way to reduce IL loading, a set of experiments was conducted by increasing the reaction time from 2 h to 6 h. Overall, reaction time extension improved both depolymerization and product yields at low IL loadings (FIG. 4A, FIG. 4B and FIG. 4C). […].
# The depolymerization reaction of polyesters were conducted in a 15 mL pressure tube (Ace Glass Inc., Vineland, NJ) at […] for one hour. […] The tube was immersed in a preheated oil bath at a desired temperature. Upon completion of the reaction, the tube was taken out from the oil bath and cooled to room temperature.
# as §3, §4, §5
# Terephthalic acid (TPA) and lactic acid (LA) were measured on a Thermo Scientific Ultimate 3000 HPLC (Waltham, MA, USA) equipped with a Bio-Rad Aminex HPX-87H column (300×7.8 mm, Hercules, CA, USA) and a Refractive Index (RI) detector. Then 4 mM sulfuric acid was used as the mobile phase at a flow rate of 1.0 mL/min. The column oven temperature was maintained at 65° C.
# [6] = Hydrolytic depolymerization of PET using ILs in water
# Procedure: as §1, §2
# The reaction residue was transferred to a 50 mL falcon tube, where solid residue was recovered through centrifugation. The solid fraction was washed with 5 mL deionized water three times before being dried in a lyophilizer (Labconco, Kansas City, MO). The liquid fraction was sampled for product analysis. The depolymerization and product yield are defined as follows:
# as §4, §5, §6
# [7] = 130° C., 2 hours, 10% IL in water
# [8] = 160° C., 20% [Ch][Lys] loading, 6 hours
# [9] = 90 wt % IL loading (no water), 2 h
# [10] = 180° C., 2 hours, 10% IL in water
smiles,measurement,setting,value
"CC(O)C(=O)O (stereo not drawn) [LA, lactic acid]",cell growth (cell concentration),[1],higher than glucose control
"O=C(O)c1ccc(C(=O)O)cc1 [TPA, terephthalic acid]",solubility in water,[2]; acidic pH,insoluble
same,solubility in water,[2]; alkaline conditions,water soluble
same,cell growth (cell concentration),[1],No cell growth was observed
O [Water],pH before reaction,[3],7.6
same,"pH after reaction, PET",[3],3.4
same,"pH after reaction, PLA",[3],3.4
"C[N+](C)(C)CCO.C[N+](C)(C)CCO.C[N+](C)(C)CCO.O=P([O-])([O-])[O-] [[Ch]3[Phos], cholinium phosphate]",pH before reaction,[3],12.7
same,"pH after reaction, PET",[3],7.7
same,"pH after reaction, PLA",[3],8.1
"C[N+](C)(C)CCO.NCCCC[C@H](N)C(=O)[O-] [[Ch][Lys], cholinium lysinate]",LA yield (product yield from PLA),[4]; [7],39.3%
same,depolymerization efficiency of PLA,[4]; [7],40.2%
same,depolymerization of PLA,[4]; [8],Up to 100%
same,depolymerization efficiency of PET/PLA mixture,"[5]; 10 wt % IL loading, 2 h",50.8%
same,LA yield from PET/PLA mixture,"[5]; 45 wt % IL loading, 2 h",93.8%
same,TPA yield from PET/PLA mixture,"[5]; 45 wt % IL loading, 2 h",79.6%
same,LA yield from PET/PLA mixture,"[5]; 60 wt % IL loading, 2 h",53.1%
same,TPA yield from PET/PLA mixture,"[5]; 60 wt % IL loading, 2 h",77.2%
same,depolymerization efficiency of PET/PLA mixture,"[5]; 60 wt % IL loading, 2 h",99.5%
same,LA yield from PET/PLA mixture,[5]; [9],40.9%
same,TPA yield from PET/PLA mixture,[5]; [9],1.5%
same,depolymerization efficiency of PET/PLA mixture,[5]; [9],91.5%
same,"LA yield from PET/PLA mixture, change versus 2 h","[5]; 90 wt % IL loading, 6 h",decreased by half
same,TPA yield from PET/PLA mixture,"[5]; 90 wt % IL loading, 6 h",1.6%
same,depolymerization of PET/PLA mixture,"[5]; 90 wt % IL loading, 6 h",97.1%
same,cell growth,[1]; media prepared with only [Ch][Lys] (IL control),contributor to the cell growth
same,pH before reaction,[3],11.8
same,"pH after reaction, PET",[3],11.0
same,"pH after reaction, PLA",[3],11.1
same,depolymerization of PET,[6]; [8],Up to 100%
same,TPA yield (product yield from PET),[6]; [10],44.5%
same,depolymerization efficiency of PET,[6]; [10],52.7%
"C[N+](C)(C)CCO.O=C([O-])[C@H](O)[C@@H](O)[C@H](O)[C@H](O)CO [[Cholinium][Gluconate], cholinium gluconate]",TPA yield higher over [Ch][Lys],"[6]; another experiment, PET depolymerization",100%
"CCn1cc[n+](C)c1.[Cl-] [[Emim]Cl, 1-ethyl-3-methylimidazolium chloride]",pH before reaction,[3],6.4
same,"pH after reaction, PET",[3],4.5
same,"pH after reaction, PLA",[3],3.2
"CC(=O)[O-].CCn1cc[n+](C)c1 [[Emim][Ac], 1-ethyl-3-methylimidazolium acetate]",pH before reaction,[3],7.1
same,"pH after reaction, PET",[3],6.8
same,"pH after reaction, PLA",[3],7.2

# Source: patent US20240052133A1, “CHEMICAL RECYLING OF PLASTICS USING IONIC LIQUIDS OR DEEP EUTECTIC SOLVENTS” (THE REGENTS OF THE UNIVERSITY OF CALIFORNIA, priority 2022, published 2024)
